Assay results as given in US20240366612A1, “COMPOUNDS AND METHODS FOR MODULATING NUCLEIC ACID SPLICING” (REMIX THERAPEUTICS INC., priority 2021, published 2024).
Where a name gives a salt, the structure may show the parent alone.

What was measured:
HTT mRNA = assay: Splicing RT-qPCR assay, HTT canonical (CJ) and alternative (AJ) junction mRNA; format: cell-based; settings: Homo sapiens, A673 or K562 cells, 24 hours treatment; for IC50: decrease in CJ mRNA; for AC50: increase in AJ mRNA
Method: (§1) Compounds described herein were used to modulate RNA transcript abundance in cells. The expression of a target mRNA was measured by detecting the formation of an exon-exon junction in the canonical transcript (CJ). A compound mediated exon-inclusion event was detected by observing an increase in formation of a new junction with an alternative exon (AJ). Real-time qPCR assays were used to detect these splicing switches and interrogate the potency of various compounds towards different target genes. A high-throughput real time quantitative PCR (RT-qPCR) assay was developed to measure these two isoforms of the mRNA (CJ and AJ) for exemplary genes, such as HTT, SMN2, and MYB, together with a control housekeeping gene, GAPDH or GUSB or PPIA, used for normalization. Briefly, the A673 or K562 cell line was treated with various compounds described herein (e.g., compounds of Formula (I)). After treatment, the levels of the HTT, MYB, or SMN2 mRNA targets were determined from each sample of cell lysate by cDNA synthesis followed by qPCR.
(§2) • Cells-to-CT 1-step kit: ThermoFisher A25602, Cells-to-CT lysis reagent: ThermoFisher 4391851C, TaqMan™ Fast Virus 1-Step Master Mix: ThermoFisher 4444436 • GAPDH: VIC-PL, ThermoFisher 4326317E (Assay: Hs99999905_ml)—used for K562/suspension cell lines • GUSB: VIC-PL, ThermoFisher 4326320E (Assay: Hs99999908_ml)—used for K562/suspension cell lines • PPIA: VIC-PL, ThermoFisher 4326316E (Assay: Hs99999904_ml)—used for A673/adherent cell lines
(§3) The A673 cell line was cultured in DMEM with 10% FBS. Cells were diluted with full growth media and plated in a 96-well plate (15,000 cells in 100 ul media per well). The plate was incubated at 37° C. with 5% CO2 for 24 hours to allow cells to adhere. An 11-point 3-fold serial dilution of the compounds was made in DMSO then diluted in media in an intermediate plate. Compounds were transferred from the intermediate plate to the cell plate with the top dose at a final concentration of 10 uM in the well. Final DMSO concentration was kept at or below 0.25%. The cell plate was returned to the incubator at 37° C. with 5% CO2 for an additional 24 hours.
(§4) The K562 cell line was cultured in IMDM with 10% FBS. For K562, cells were diluted with full growth media and plated in either a 96-well plate (50,000 cells in 50 uL media per well) or a 384-well plate (8,000-40,000 cells in 45 uL media per well). An 11-point 3-fold serial dilution of the compounds were made in DMSO then diluted in media in an intermediate plate. Compound was transferred from the intermediate plate to the cell plate with the top dose at a final concentration of 10 uM in the well. Final DMSO concentration was kept at or below 0.25%. Final volume was 100 uL for 96-well plate and 50 uL for 384-well plate. The cell plate was then placed in an incubator at 37° C. with 5% CO2 for 24 hours.
(§5) The cells were then gently washed with 50 uL-100 uL cold PBS before proceeding to addition of lysis buffer. 30 uL-50 μL of room temperature lysis buffer with DNAse I (and optionally RNAsin) was added to each well. Cells were shaken/mixed thoroughly at room temperature for 5-10 minutes for lysis to take place and then 3 uL-5 μL of room temperature stop solution was added and wells were shaken/mixed again. After 2-5 minutes, the cell lysate plate was transferred to ice for RT-qPCR reaction setup. The lysates could also be frozen at −80° C. for later use.
(§6) In some cases, a direct lysis buffer was used. An appropriate volume of 3×lysis buffer (10 mM Tris, 150 mM NaCl, 1.5%-2.5% Igepal and 0.1-1 U/uL RNAsin, pH 7.4) was directly added to either K562 or A673 cells in media and mixed by pipetting 3 times. The plates were then incubated at room temperature with shaking/rocking for 20-50 minutes to allow for lysis to take place. After this time, the cell lysate plate was transferred to ice to set up for the RT-qPCR reactions. The lysates could also be frozen at −80° C. for later use. […]

MYB mRNA = assay: Splicing RT-qPCR assay, MYB canonical (CJ) and alternative (AJ) junction mRNA; format: cell-based; settings: Homo sapiens, A673 or K562 cells, 24 hours treatment; for IC50: decrease in CJ mRNA; for AC50: increase in AJ mRNA
Method: as §1, §2, §3, §4, §5, §6

HTT CJ mRNA = assay: Gene panel canonical junction qPCR assay, HTT; format: cell-based; settings: Homo sapiens, larger gene panel, read-out: HTT IC50 (decrease in CJ mRNA levels)
Method: as §1, §3, §4
(§7) The data analysis was performed by first determining the ΔCt vs the housekeeper gene. This ΔCt was then normalized against the DMSO control (ΔΔCt) and converted to RQ (relative quantification) using the 2^(−ΔΔCt) equation. The RQ were then converted to a percentage response by arbitrarily setting an assay window of 3.5 and 4.0 ΔCt for HTT-CJ and MYB-CJ respectively and an assay window of 9 and 3 ΔCt for HTT-AJ and MYB-AJ in 96 well format (50,000 K562 cells/well and 15,000 A673 cells per well) and an assay window of 3 and 4 ΔCt for HTT-CJ and MYB-CJ respectively and an assay window of 5 and 3 ΔCt for HTT-AJ and MYB-AJ respectively in 384 well format (8,000 K562 cells/well example). […] The percentage response was then fitted to the 4 parametric logistic equation to evaluate the concentration dependence of compound treatment. The increase in AJ mRNA is reported as AC50 (compound concentration having […] in AJ increase) while the decrease in CJ mRNA levels is reported as IC50 (compound concentration having 50% response in CJ decrease).
(§8) Additional studies were carried out for a larger panel of genes using the protocol provided above. The junction between flanking upstream and downstream exons was used to design canonical junction qPCR assays. At least one of the forward primer, reverse primer or the CY5-labeled 5′ nuclease probe (with 3′ quencher such as ZEN/Iowa Black FQ) was designed to overlap with the exon junction to capture the CJ mRNA transcript. […]

MYB CJ mRNA = assay: Gene panel canonical junction qPCR assay, MYB; format: cell-based; settings: Homo sapiens, larger gene panel, read-out: MYB IC50 (decrease in CJ mRNA levels)
Method: as §1, §3, §4, §7, §8

SMN2 CJ mRNA = assay: Gene panel canonical junction qPCR assay, SMN2; format: cell-based; settings: Homo sapiens, larger gene panel, read-out: SMN2 IC50 (decrease in CJ mRNA levels)
Method: as §1, §3, §4, §7, §8

[1] = Cell Titer Glo 2.0 cell viability assay; settings: human, K562 cells

IC50 (HTT mRNA)	IC50 (MYB mRNA)	IC50 (HTT CJ mRNA)	IC50 (MYB CJ mRNA)	IC50 (SMN2 CJ mRNA)	SMILES	AC50 (HTT mRNA)	AC50 (MYB mRNA)	GI50 at 72 h [1]
1 to 10 µM	1 to 10 µM	1 to 10 µM	1 to 10 µM	< 0.1 µM	Cc1cn2cc(-c3cc4ncn([C@H]5CCNC[C@@H]5F)c(=O)c4s3)cc(F)c2n1 (relative stereo) [Compound 272, trans-6-{8-fluoro-2-methylimidazo[1,2-a]pyridin-6-yl}-3-[3-fluoropiperidin-4-yl]thieno[3,2-d]pyrimidin-4-one]	> 10 µM	1 to 10 µM	> 10 µM
0.1 to 1 µM	0.1 to 1 µM	0.1 to 1 µM	0.1 to 1 µM	0.1 to 1 µM	Cc1cn2nc(-c3nc4sc(N5CCNCC5)nc4c(=O)[nH]3)cc2c(C)n1 [Compound 267]	0.1 to 1 µM	0.1 to 1 µM	0.1 to 1 µM
0.1 to 1 µM	0.1 to 1 µM	0.1 to 1 µM	0.1 to 1 µM	< 0.1 µM	Cc1cn2cc(-c3cc4ncn([C@H]5CCN[C@@H](C)C5)c(=O)c4s3)cc(F)c2n1 (relative stereo) [Compound 278, 6-{8-fluoro-2-methylimidazo[1,2-a]pyridin-6-yl}-3-[(cis)-2-methylpiperidin-4-yl]thieno[3,2-d]pyrimidin-4-one hydrochloride]	0.1 to 1 µM	0.1 to 1 µM	0.1 to 1 µM
1 to 10 µM	1 to 10 µM	1 to 10 µM	1 to 10 µM	1 to 10 µM	Cc1cn2cc(-c3cc(=O)n4nc(N5CCNC6(CC6)C5)sc4n3)cc(F)c2n1 [Compound 209, 7-(8-fluoro-2-methylimidazo[1,2-a]pyridin-6-yl)-2-(4,7-diazaspiro[2.5]octan-7-yl)-5H-[1,3,4]thiadiazolo[3,2-a]pyrimidin-5-one]	1 to 10 µM	1 to 10 µM	1 to 10 µM
1 to 10 µM	0.1 to 1 µM	1 to 10 µM	0.1 to 1 µM	< 0.1 µM	Cc1nc(-c2cc3ncn(C4CCNCC4)c(=O)c3s2)cc2cn(C)nc12 [Compound 271]	1 to 10 µM	1 to 10 µM	1 to 10 µM
1 to 10 µM	0.1 to 1 µM	1 to 10 µM	0.1 to 1 µM	< 0.1 µM	Cn1cc2cc(-c3cc4ncn(C5CCNCC5)c(=O)c4s3)cc(C#N)c2n1 [Compound 259]	1 to 10 µM	0.1 to 1 µM	1 to 10 µM
1 to 10 µM	1 to 10 µM	1 to 10 µM	1 to 10 µM	0.1 to 1 µM	Cc1cc(-c2nn3c(=O)cc(N4CCNCC4)nc3s2)cc2cn(C)nc12 [Compound 206, 2-(2,7-dimethyl-2H-indazol-5-yl)-7-(piperazin-1-yl)-5H-[1,3,4]thiadiazolo[3,2-a]pyrimidin-5-one]	1 to 10 µM	1 to 10 µM	1 to 10 µM
0.1 to 1 µM	0.1 to 1 µM	0.1 to 1 µM	0.1 to 1 µM	< 0.1 µM	Cc1cn2cc(-c3cc4ncn(C5CCCNCC5)c(=O)c4s3)cc(F)c2n1 (centres unmarked) [Compound 275, 3-(azepan-4-yl)-6-{8-fluoro-2-methylimidazo[1,2-a]pyridin-6-yl}thieno[3,2-d]pyrimidin-4-one]	0.1 to 1 µM	0.1 to 1 µM	0.1 to 1 µM
1 to 10 µM	1 to 10 µM	1 to 10 µM	1 to 10 µM	< 0.1 µM	Cc1cn2nc(-c3cc4ncn(C5CCN(C)CC5)c(=O)c4s3)cc(C)c2n1 [Compound 239, 6-(2,8-dimethylimidazo[1,2-b]pyridazin-6-yl)-3-(1-methylpiperidin-4-yl)thieno[3,2-d]pyrimidin-4(3H)-one]	1 to 10 µM	0.1 to 1 µM	1 to 10 µM
1 to 10 µM	1 to 10 µM	1 to 10 µM	1 to 10 µM	1 to 10 µM	Cc1cn2cc(-c3nn4c(=O)cc(N5CCN(C)C6(CC6)C5)nc4s3)cc(F)c2n1 [Compound 218, 2-(8-fluoro-2-methylimidazo[1,2-a]pyridin-6-yl)-7-(4-methyl-4,7-diazaspiro[2.5]octan-7-yl)-5H-[1,3,4]thiadiazolo[3,2-a]pyrimidin-5-one]	1 to 10 µM	1 to 10 µM	1 to 10 µM
0.1 to 1 µM	0.1 to 1 µM	0.1 to 1 µM	0.1 to 1 µM	< 0.1 µM	Cc1cc(-c2cc3ncn(C4CCN(C)CC4)c(=O)c3s2)cc2cn(C)nc12 [Compound 237, 6-(2,7-dimethyl-2H-indazol-5-yl)-3-(1-methylpiperidin-4-yl)thieno[3,2-d]pyrimidin-4(3H)-one]	0.1 to 1 µM	< 0.1 µM	0.1 to 1 µM
< 0.1 µM	0.1 to 1 µM	< 0.1 µM	0.1 to 1 µM	< 0.1 µM	Cc1cc(-c2nc3ncn(C4CCNCC4)c(=O)c3s2)cc2cn(C)nc12 [Compound 233, 2-(2,7-dimethyl-2H-indazol-5-yl)-6-(piperidin-4-yl)thiazolo[4,5-d]pyrimidin-7(6H)-one]	< 0.1 µM	< 0.1 µM	0.1 to 1 µM
0.1 to 1 µM	0.1 to 1 µM	0.1 to 1 µM	0.1 to 1 µM	< 0.1 µM	Cc1cn2cc(-c3cc4ccn(C5CCN(C)CC5)c(=O)c4s3)cc(F)c2n1 [Compound 808, 2-(8-fluoro-2-methylimidazo[1,2-a]pyridin-6-yl)-6-(1-methylpiperidin-4-yl)thieno[2,3-c]pyridin-7(6H)-one]	1 to 10 µM	0.1 to 1 µM	0.1 to 1 µM
